What was measured:
[1] = test system: mouse bone marrow‐derived macrophages (BMDM); assay: Phagocytosis of fluorescent E. coli particles by BMDM; type: cell-based; conditions: 10 µM 4 h, washed, 48 h follow-up, versus MACTIDE treated and untreated BMDM
Description: We then analyzed if MACTIDE‐V affected the phagocytic activity of BMDM in vitro.
For the E. coli phagocytosis assay, cells were cultured in a 96‐well plate and treated with conjugates as previously described (for 4 h at a 10 µM concentration at 37 °C, then peptide conjugates were removed, washed with media and fresh media was added). The phagocytosis assay was performed at 48 h after treatment removal by removing the media, incubating fluorescent E. coli BioParticles for 2 h, followed by a 1 min incubation with trypan blue (Vybrant Phagocytosis Assay Kit, Invitrogen, Cat# V6694). Plates were read at 480 nm excitation and 520 nm emission using a BioTek Synergy H1 plate reader.

orthotopic 4T1 tumors = assay: In vivo photodynamic therapy study in orthotopic 4T1; set-up: species or system Balb/c mice
Description: Figure 5 In vitro and in vivo photodynamic therapy with MACTIDE‐V. A) Structure of MACTIDE‐V. B) MACTIDE‐V, CtrlPep‐V, and DOX were incubated with primary human macrophages (obtained from monocytes derived from human blood buffy coat) at 30 µM for 1 h at 37 °C, followed by 2 washes with media. Then, the groups shown in pink were irradiated with 10 J cm^−2 (irradiance: 170 mW cm^−2, spot diameter: 0.5 cm). […] For the irradiated groups, 4 h after administration of conjugates or PBS, the mice were irradiated with 100 J cm^−2; shown is primary tumor volume progression during treatment. Gray arrows indicate injection days. D) Bodyweight during the treatment as % of the initial one. E) Representative mIHC images of PBS, CtrlPep‐V, and MACTIDE‐V‐treated tumors, 20X magnification, scale bar = 100 µm, white triangles point to Foxp3^+ cells. F) CD8^+ T cells, CD4^+ T cells, and Treg density, n = 6 mice/group, with every dot representing the mean cell density of each tumor obtained from 20 images. G) CD8^+ T cells density in CK8^+‐dense tumor regions. n = 5 mice/group, with every dot representing the mean cell density of each tumor obtained from 20 images. Median ± interquartile range. One‐way ANOVA with multiple comparisons, ^* p ≤ 0.05, ^** p ≤ 0.01.
Prompted by the consistent laser‐induced and preferential toxicity of MACTIDE‐V on IL‐4‐stimulated macrophages, we decided to evaluate its in vivo therapeutic effect on mice survival in the orthotopic 4T1 model. […] This prompted us to further investigate the effect of MACTIDE‐V (‐), which hereafter will be denoted simply as “MACTIDE‐V”. To obtain further information on the effect of MACTIDE‐V in this tumor model, we investigated T cell infiltration in treated tumors, using multiplex immunohistochemistry (mIHC), comparing MACTIDE‐V (‐) group to PBS and CtrlPep‐V (‐) groups.
Orthotopic tumors were induced by injecting 5×10^4 4T1 cells in 50 µL of PBS subcutaneously into the 4th mammary fat pad of 8–12‐week‐old female Balb/c mice. When tumors reached ≈40 mm^3, mice were sorted into groups: MACTIDE‐V (+), MACTIDE‐V (‐), CtrlPep‐V (+), CtrlPep‐V (‐), MACTIDE (‐), and PBS (+). Tumors were measured using a digital caliper (Mitutoyo) and volume was calculated using (W^2 × L)/2 formula, where W is the width of a tumor and L is the length. Each group had six mice. The first intraperitoneal injection (30 nmol) was carried out on day 9 post‐tumor induction. 4 h post‐injection, the tumor area was shaved to lessen laser scattering and tumors were irradiated with 100 J cm^−2 using the NIR laser source for PDT described above. Each tumor was measured, and the spot size was adjusted every time, keeping the radiation dose always constant. Irradiation of the tumors was done in complete darkness under anesthesia. Mice recovered on a heating pad and eye drops were applied to avoid eye dryness. All mice, whether irradiated or not, were anesthetized to keep the handling conditions the same. Mouse bodyweights and tumor volumes were monitored every other day. The sacrifice of mice began on day 23 based on their tumor sizes (over 1500 mm^3) or cachexia. The final mice were sacrificed on day 36 post‐tumor induction. Tumor volume curves are shown until day 23 when mice elimination began, and the sample number became too small for statistical comparison. Survival was analyzed using GraphPad Prism to plot Kaplan–Meier survival curves and perform the Mantel–Cox test for statistical analysis. Tumors taken on similar days were analyzed using mIHC.
The staining of 4 µm‐thick formalin‐fixed paraffin‐embedded (FFPE) tissue sections for mIHC analysis was carried out using the tyramide signal amplification‐based Opal method (Akoya Biosciences) on a Leica BOND RX automated immunostainer (Leica Microsystems). For each staining cycle, FFPE slides were deparaffinized and subjected to heat‐induced epitope retrieval at 97 or 100 °C using BOND epitope retrieval solutions ER1 or ER2 (Leica Biosystems).

[2] = non-irradiated, versus PBS and CtrlPep‐V (‐), n = 6 mice/group

**Q.** With “Vert‐Ahx‐G(CTKSIPPIC)SPGAK‐OH (disulfide) [MACTIDE‐V]” as the substance, how does the “phagocytosis of fluorescently labeled E. coli” value [1] read?
**A.** significantly higher phagocytosis

**Q.** What about the mice survival (orthotopic 4T1 tumors; Kaplan–Meier, Mantel–Cox test) of the same substance?
**A.** no significant differences

**Q.** What about the “primary tumor volume, non‐irradiated (‐)” value (orthotopic 4T1 tumors; i.p. 30 nmol (1 mg Kg^−1 in Verteporfin), no laser, n = 6/group, significant respect to PBS) of the same substance?
**A.** strongest tumor volume reduction

**Q.** And the “primary tumor growth, irradiated (+)” value (orthotopic 4T1 tumors; i.p. 30 nmol, irradiated 100 J cm^−2 4 h after administration, n = 6/group, versus control groups, not statistically significant)?
**A.** slowed down the tumor growth

**Q.** And the “body weight, non‐irradiated (‐)” value (orthotopic 4T1 tumors; i.p. 30 nmol, no laser, % of initial bodyweight)?
**A.** negligible effect on body weight

**Q.** What about the “CD8^+ T cell density in CK8^+‐dense tumor regions (mIHC)” value (orthotopic 4T1 tumors; non-irradiated, n = 5 mice/group) of the same substance?
**A.** higher CD8^+ T cell density

**Q.** What about the “CD8^+ T cell infiltration in tumors (mIHC)” value (orthotopic 4T1 tumors; [2]) of the same substance?
**A.** significantly higher infiltration of CD8^+ T cells

**Q.** What about the “density of regulatory T cells (Tregs) in tumors (mIHC)” value (orthotopic 4T1 tumors; [2]) of the same substance?
**A.** no differences in the density of regulatory T cells
